Three molecules from article PMC6437697 (Journal of Medicinal Chemistry, 2019) can be followed below.

Holding throughout (assay): KINOMEscan
Common to all, as to format: binding
Common to all, as to settings: read-out: % control activity remaining

One assay deals with T1, ACVR1 (Homo sapiens, UniProt Q04771).
T1 construct: purchased Eurofins DiscoverX KINOMEscan
T1 sequence (Q04771 21-509): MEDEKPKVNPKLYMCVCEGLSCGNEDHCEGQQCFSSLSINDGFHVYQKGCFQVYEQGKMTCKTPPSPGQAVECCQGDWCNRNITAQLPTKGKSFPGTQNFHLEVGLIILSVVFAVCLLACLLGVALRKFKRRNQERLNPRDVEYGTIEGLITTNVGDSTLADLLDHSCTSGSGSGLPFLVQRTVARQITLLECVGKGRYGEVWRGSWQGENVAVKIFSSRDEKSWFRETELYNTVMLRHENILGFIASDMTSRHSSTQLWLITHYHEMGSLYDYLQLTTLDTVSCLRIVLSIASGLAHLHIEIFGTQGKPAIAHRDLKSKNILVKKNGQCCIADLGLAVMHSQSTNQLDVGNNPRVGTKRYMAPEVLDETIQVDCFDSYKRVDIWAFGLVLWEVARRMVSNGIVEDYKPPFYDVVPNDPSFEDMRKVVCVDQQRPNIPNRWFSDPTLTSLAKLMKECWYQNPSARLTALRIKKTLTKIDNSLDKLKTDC

For the next assay, the target named is T2, BRK (Homo sapiens, UniProt Q13882).
T2 construct: purchased Eurofins DiscoverX KINOMEscan

The target in a further assay is T3, CIT (Homo sapiens, UniProt O14578).
T3 construct: purchased Eurofins DiscoverX KINOMEscan

For another assay, the target named is T4, CSNK2A2 (Homo sapiens, UniProt P19784).
T4 construct: purchased Eurofins DiscoverX KINOMEscan

The next assay concerns the target T5, DAPK1 (Homo sapiens, UniProt P53355).
T5 construct: purchased Eurofins DiscoverX KINOMEscan

For the next assay, the target named is T6, EGFR(L858R) (Homo sapiens, UniProt P00533, L858R).
T6 construct: purchased Eurofins DiscoverX KINOMEscan

Another assay deals with T7, FYN (Homo sapiens, UniProt P06241).
T7 construct: purchased Eurofins DiscoverX KINOMEscan

In a further assay the target is T8, MKNK2 (Homo sapiens, UniProt Q9HBH9).
T8 construct: purchased Eurofins DiscoverX KINOMEscan

The target in the next assay is T9, PAK3 (Homo sapiens, UniProt O75914).
T9 construct: purchased Eurofins DiscoverX KINOMEscan

The target of another assay is T10, RIPK1 (Homo sapiens, UniProt Q13546).
T10 construct: purchased Eurofins DiscoverX KINOMEscan
T10 sequence (Q13546 1-671): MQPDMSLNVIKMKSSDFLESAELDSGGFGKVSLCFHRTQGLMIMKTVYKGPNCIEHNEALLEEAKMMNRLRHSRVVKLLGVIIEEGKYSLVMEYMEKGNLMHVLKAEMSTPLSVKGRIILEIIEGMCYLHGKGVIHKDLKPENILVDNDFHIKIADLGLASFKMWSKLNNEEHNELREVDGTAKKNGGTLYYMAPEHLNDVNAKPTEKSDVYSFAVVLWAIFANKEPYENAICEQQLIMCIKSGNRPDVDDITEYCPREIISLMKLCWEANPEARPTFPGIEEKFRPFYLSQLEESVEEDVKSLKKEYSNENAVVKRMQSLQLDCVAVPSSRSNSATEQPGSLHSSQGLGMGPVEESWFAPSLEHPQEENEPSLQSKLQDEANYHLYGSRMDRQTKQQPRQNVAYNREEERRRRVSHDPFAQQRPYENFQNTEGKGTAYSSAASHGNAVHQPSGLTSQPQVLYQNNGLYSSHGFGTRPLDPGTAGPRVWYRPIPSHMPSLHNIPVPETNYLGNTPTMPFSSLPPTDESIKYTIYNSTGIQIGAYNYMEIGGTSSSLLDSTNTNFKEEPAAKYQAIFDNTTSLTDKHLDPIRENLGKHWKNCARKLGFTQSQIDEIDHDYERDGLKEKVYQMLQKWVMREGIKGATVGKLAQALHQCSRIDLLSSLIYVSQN

The target in assay [1] is T11, RPS6KA5(Kin.Dom.2-C-terminal) (Homo sapiens, UniProt O75582).
T11 construct: RPS6KA5(Kin.Dom.2-C-terminal); purchased Eurofins DiscoverX KINOMEscan

The target in the next assay is T12, YANK3 (Homo sapiens, UniProt Q86UX6).
T12 construct: purchased Eurofins DiscoverX KINOMEscan
T12 sequence (Q86UX6 whole entry): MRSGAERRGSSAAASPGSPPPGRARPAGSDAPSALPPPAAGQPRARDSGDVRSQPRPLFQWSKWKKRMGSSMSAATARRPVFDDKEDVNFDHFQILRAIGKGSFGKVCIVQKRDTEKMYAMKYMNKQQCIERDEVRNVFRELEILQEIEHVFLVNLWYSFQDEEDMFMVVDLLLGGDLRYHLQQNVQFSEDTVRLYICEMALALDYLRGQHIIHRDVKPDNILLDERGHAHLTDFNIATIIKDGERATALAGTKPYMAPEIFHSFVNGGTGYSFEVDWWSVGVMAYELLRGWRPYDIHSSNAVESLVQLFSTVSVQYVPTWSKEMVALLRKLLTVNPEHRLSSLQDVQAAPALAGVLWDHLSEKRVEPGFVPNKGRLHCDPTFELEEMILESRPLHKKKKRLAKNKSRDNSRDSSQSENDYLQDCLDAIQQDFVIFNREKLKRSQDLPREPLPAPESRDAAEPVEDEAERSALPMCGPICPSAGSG

T5 sequence (P53355 whole entry): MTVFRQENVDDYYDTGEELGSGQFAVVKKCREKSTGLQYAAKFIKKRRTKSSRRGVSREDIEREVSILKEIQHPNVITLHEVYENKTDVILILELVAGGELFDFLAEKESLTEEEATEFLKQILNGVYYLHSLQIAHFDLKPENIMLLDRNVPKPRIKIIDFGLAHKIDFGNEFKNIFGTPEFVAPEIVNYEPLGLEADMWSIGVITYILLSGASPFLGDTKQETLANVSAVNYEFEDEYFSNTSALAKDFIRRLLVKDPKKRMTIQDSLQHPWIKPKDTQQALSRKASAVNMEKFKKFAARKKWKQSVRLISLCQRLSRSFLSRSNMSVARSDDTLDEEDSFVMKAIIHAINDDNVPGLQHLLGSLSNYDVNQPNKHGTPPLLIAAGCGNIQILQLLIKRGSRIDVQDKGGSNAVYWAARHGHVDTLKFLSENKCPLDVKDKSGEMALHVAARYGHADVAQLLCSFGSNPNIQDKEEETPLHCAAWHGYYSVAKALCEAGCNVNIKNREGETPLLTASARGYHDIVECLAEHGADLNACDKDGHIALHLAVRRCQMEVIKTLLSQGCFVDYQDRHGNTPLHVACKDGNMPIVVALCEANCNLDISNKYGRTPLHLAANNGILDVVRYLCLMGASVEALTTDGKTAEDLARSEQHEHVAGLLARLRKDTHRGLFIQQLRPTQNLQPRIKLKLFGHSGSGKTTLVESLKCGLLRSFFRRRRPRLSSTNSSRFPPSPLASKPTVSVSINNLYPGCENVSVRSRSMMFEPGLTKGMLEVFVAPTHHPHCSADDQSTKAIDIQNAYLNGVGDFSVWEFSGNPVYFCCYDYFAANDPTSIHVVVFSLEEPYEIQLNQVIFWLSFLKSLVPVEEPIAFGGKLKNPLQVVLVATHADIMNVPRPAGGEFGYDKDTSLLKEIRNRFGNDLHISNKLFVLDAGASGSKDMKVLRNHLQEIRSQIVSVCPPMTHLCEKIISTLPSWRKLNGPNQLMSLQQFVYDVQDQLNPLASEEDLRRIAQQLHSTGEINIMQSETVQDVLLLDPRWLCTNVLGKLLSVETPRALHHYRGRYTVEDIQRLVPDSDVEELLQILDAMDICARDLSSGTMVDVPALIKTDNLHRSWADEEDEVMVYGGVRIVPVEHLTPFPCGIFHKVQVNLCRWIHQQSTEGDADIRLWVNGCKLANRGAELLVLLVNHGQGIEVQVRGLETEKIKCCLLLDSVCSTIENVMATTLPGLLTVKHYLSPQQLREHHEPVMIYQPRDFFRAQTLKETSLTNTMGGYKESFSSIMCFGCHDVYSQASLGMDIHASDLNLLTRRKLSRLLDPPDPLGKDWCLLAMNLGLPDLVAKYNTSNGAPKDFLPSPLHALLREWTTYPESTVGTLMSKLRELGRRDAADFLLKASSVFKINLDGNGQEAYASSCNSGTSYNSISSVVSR
T11 sequence (O75582 426-687 limits assumed): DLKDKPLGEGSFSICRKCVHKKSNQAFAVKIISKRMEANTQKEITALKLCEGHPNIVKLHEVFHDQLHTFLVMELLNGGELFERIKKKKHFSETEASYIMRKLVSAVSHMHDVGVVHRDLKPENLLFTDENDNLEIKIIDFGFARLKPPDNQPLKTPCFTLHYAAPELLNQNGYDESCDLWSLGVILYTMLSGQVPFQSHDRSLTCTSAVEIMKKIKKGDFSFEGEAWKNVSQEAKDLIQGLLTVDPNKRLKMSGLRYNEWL
T2 sequence (Q13882 whole entry): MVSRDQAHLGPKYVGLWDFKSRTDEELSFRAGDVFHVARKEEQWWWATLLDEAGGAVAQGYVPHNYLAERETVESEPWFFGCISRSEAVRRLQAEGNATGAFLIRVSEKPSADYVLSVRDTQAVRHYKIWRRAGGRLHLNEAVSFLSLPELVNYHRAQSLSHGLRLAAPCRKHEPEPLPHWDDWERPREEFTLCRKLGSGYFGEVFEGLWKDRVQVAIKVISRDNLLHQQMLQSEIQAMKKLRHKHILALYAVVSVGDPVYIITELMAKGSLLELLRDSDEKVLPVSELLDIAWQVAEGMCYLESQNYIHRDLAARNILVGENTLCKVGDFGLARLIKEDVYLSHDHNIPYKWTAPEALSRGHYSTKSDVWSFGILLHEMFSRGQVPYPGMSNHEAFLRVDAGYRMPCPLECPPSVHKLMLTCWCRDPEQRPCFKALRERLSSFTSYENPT
T3 sequence (O14578 whole entry): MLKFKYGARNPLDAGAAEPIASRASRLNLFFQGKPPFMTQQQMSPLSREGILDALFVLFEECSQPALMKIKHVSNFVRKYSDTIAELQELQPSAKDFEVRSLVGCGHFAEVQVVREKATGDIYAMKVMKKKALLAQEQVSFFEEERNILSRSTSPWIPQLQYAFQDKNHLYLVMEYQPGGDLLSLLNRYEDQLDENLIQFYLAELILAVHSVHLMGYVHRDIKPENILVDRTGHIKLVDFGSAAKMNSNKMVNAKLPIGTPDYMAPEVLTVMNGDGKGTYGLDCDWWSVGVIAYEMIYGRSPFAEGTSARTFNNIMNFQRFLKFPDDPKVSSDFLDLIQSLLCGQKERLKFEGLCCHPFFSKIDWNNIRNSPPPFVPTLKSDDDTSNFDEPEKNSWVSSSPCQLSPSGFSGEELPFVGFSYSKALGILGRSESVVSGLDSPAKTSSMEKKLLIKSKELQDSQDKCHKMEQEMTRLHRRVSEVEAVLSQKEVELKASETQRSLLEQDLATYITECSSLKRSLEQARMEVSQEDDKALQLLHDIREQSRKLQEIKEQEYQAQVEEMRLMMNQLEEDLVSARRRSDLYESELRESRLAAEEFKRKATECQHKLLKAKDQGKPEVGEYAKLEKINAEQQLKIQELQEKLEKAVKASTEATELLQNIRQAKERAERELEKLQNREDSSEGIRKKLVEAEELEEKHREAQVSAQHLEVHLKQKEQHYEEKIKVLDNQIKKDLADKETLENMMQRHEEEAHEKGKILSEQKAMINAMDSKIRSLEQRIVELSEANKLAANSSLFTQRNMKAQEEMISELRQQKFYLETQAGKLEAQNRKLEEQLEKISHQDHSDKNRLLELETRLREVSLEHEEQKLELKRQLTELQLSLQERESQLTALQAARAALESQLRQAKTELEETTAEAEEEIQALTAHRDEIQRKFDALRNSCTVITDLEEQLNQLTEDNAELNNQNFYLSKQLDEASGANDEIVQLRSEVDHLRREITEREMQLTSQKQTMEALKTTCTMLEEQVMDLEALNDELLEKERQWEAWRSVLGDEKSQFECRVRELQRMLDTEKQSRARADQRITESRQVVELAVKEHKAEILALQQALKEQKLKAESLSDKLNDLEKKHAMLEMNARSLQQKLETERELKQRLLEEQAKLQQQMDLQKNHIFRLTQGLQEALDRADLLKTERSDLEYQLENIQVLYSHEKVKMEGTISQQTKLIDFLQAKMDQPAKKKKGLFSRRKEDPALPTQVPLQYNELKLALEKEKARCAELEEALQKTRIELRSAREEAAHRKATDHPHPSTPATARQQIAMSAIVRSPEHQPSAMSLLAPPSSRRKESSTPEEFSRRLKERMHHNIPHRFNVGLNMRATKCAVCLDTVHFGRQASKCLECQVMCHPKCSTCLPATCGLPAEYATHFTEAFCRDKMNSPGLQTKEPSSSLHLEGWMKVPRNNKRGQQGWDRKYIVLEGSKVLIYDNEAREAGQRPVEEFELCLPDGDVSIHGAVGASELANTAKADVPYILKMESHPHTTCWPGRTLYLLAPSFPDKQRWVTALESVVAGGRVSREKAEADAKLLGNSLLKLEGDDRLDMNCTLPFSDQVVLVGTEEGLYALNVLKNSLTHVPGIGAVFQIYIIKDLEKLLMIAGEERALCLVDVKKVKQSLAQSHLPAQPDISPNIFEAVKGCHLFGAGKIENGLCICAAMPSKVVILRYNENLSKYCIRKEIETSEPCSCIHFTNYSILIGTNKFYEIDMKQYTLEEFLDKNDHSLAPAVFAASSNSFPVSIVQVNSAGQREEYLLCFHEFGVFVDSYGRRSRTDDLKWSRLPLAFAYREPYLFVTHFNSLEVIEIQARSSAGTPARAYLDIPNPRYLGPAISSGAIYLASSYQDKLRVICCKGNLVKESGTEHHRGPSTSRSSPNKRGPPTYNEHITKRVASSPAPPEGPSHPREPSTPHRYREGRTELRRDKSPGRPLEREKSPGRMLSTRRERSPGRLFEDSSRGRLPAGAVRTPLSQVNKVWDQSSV
T4 sequence (P19784 whole entry): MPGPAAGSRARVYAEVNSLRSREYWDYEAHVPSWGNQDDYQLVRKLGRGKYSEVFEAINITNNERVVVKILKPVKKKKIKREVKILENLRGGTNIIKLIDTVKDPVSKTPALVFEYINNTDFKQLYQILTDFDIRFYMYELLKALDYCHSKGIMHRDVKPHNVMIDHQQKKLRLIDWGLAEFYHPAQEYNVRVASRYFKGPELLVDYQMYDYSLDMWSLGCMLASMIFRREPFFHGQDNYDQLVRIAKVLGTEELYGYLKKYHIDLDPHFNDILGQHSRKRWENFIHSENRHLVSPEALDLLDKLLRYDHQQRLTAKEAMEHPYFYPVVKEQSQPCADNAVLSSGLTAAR

As for `Clc1cc(NCC2CC2)c2ncc(-c3ccc4[nH]ncc4c3)n2n1` [compound 2, 6-Chloro-N-(cyclopropylmethyl)-3-(1H-indazol-5-yl)imidazo[1,2-b]pyridazin-8-amine], the remaining binding at 1 µM at ACVR1 was determined as 90%; on BRK, 87%; on CIT, 73%; on CSNK2A2, 94%; on DAPK1, 98%; at EGFR(L858R), 68%. The remaining binding at 1 µM on FYN was found to be 95%; at MKNK2, 80%; on PAK3, 63%; on RIPK1 it was 91%; in assay [1], 93%; on YANK3 it was 100%.

As to `O=C(CN1CCOCC1)N[C@H]1CC[C@H](Nc2cc(Cl)nn3c(-c4ccc5[nH]ncc5c4)cnc23)CC1` [compound 26], the remaining binding at 1 µM is 95% on ACVR1; 85% on BRK; 74% at CIT; 100% at CSNK2A2; 66% at DAPK1; 83% at EGFR(L858R). The remaining binding at 1 µM on FYN is 96%; at MKNK2, 67%; at PAK3, 81%; on RIPK1, 74%; in assay [1] it was 80%; on YANK3, 99%.

With `CN1CCC(CNc2cc(Cl)nn3c(-c4cc5nc(Nc6ccccc6)[nH]c5cc4F)cnc23)CC1` [compound 31, 6-Chloro-3-(6-fluoro-2-(phenylamino)-1H-benzo[d]imidazol-5-yl)-N-((1-methylpiperidin-4-yl)methyl)imidazo[1,2-b]pyridazin-8-amine], the remaining binding at 1 µM on ACVR1 came to 99%; at BRK, 93%; on CIT, 85%; on CSNK2A2, 100%; at DAPK1 it was 99%; on EGFR(L858R), 100%. Also, the remaining binding at 1 µM at FYN was 98%; at MKNK2, 74%; on PAK3, 100%; on RIPK1 it was 94%; in assay [1], 99%; on YANK3, 73%.
